{"source": "patent US12686690B2", "about": "“Macrocyclic urea orexin receptor agonists” (Merck Sharp & Dohme LLC, priority 2020, dated 2026)", "biological_target": "T1, hOX2R (Homo sapiens, UniProt O43614)", "T1 construct": "expressed in transfected cells; host or cells: CHO cells (G418 selection)", "T1 sequence (O43614 1-444)": "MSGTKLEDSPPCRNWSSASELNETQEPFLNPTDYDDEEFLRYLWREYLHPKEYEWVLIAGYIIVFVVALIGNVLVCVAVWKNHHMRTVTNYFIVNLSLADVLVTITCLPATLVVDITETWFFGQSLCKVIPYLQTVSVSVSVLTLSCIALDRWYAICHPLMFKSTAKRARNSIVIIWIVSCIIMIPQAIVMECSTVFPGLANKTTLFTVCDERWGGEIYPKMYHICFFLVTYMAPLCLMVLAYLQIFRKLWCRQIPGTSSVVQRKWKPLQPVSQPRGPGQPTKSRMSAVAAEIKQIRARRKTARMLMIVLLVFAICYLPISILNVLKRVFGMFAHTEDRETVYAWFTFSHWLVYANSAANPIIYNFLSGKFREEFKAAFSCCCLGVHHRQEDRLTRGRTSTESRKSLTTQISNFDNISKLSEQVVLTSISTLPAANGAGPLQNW", "experiment": "hOX2R IPone assay (orexin receptor agonism)", "type": "cell-based", "details": "IPone readout; for hOX2R_Ipone max %act: maximal activation; for EC50: orexin receptor agonist, read-out: hOX2R_IPone EC50", "data": [{"smiles": "CCN1C(=O)N[C@@H](CCC(F)(F)F)CCCCCOc2nc(cn3ccnc23)-c2cc(cc(C)n2)[C@@H]1C", "note": "[Example 118A, (12S,16R)-13-ethyl-9,12-dimethyl-16-(3,3,3-trifluoropropyl)-12,13,16,17,18,19,20,21-octahydro-6,23-(azeno)-11,7-(metheno)imidazo[2,1-c][1,4,8,13,15]oxatetraazacyclohenicosin-14(15H)-one]", "values": [{"measurement": "hOX2R_Ipone max %act", "value": 99.08, "unit": "%"}, {"measurement": "EC50", "value": 183, "unit": "nM"}]}, {"smiles": "CCN1C(=O)N[C@@H](CCC(F)(F)F)CCCCCOc2nc(cn3ccnc23)-c2cc(cc(C)n2)[C@H]1C", "note": "[Example 118B, (12R,16R)-13-ethyl-9,12-dimethyl-16-(3,3,3-trifluoropropyl)-12,13,16,17,18,19,20,21-octahydro-6,23-(azeno)-11,7-(metheno)imidazo[2,1-c][1,4,8,13,15]oxatetraazacyclohenicosin-14(15H)-one]", "values": [{"measurement": "hOX2R_Ipone max %act", "value": 99.7, "unit": "%"}, {"measurement": "EC50", "value": 2.6, "unit": "nM"}]}, {"smiles": "CCN1C(=O)N[C@@H](CCC(F)(F)F)CCCCCOc2nc(cn3ccnc23)-c2cc(nc(C)n2)[C@@H]1C", "note": "[Example 119A, (12S,16R)-13-ethyl-9,12-dimethyl-16-(3,3,3-trifluoropropyl)-12,13,16,17,18,19,20,21-octahydro-6,23-(azeno)-11,7-(metheno)imidazo[2,1-c][1,4,8,10,13,15]oxapentaazacyclohenicosin-14(15H)-one]", "values": [{"measurement": "hOX2R_Ipone max %act", "value": 100.1, "unit": "%"}, {"measurement": "EC50", "value": 166, "unit": "nM"}]}, {"smiles": "CCN1C(=O)N[C@@H](CCC(F)(F)F)CCCCCOc2nc(cn3ccnc23)-c2cc(nc(C)n2)[C@H]1C", "note": "[Example 119B, (12R,16R)-13-ethyl-9,12-dimethyl-16-(3,3,3-trifluoropropyl)-12,13,16,17,18,19,20,21-octahydro-6,23-(azeno)-11,7-(metheno)imidazo[2,1-c][1,4,8,10,13,15]oxapentaazacyclohenicosin-14(15H)-one]", "values": [{"measurement": "hOX2R_Ipone max %act", "value": 99.9, "unit": "%"}, {"measurement": "EC50", "value": 4.6, "unit": "nM"}]}, {"smiles": "CCN1Cc2cc(ccn2)-c2cn3ccnc3c(n2)OCCCCC[C@H](CCC(F)(F)F)NC1=O", "note": "[Example 120, (16R)-13-ethyl-16-(3,3,3-trifluoropropyl)-12,13,16,17,18,19,20,21-octahydro-6,23-(azeno)-11,7-(metheno)imidazo[2,1-c][1,4,10,13,15]oxatetraazacyclohenicosin-14(15H)-one]", "values": [{"measurement": "hOX2R_Ipone max %act", "value": 98.4, "unit": "%"}, {"measurement": "EC50", "value": 17.7, "unit": "nM"}]}, {"smiles": "CCN1C(=O)NC(CC(F)(F)CC)CCOCCOc2cn3ncnc3c(n2)-c2cc(ncc2C)C1C", "note": "[Example 122, (3R,E)-7-(2,2-difluorobutyl)-4-ethyl-25,3-dimethyl-10,13-dioxa-4,6-diaza-1(6,8)-[1,2,4]triazolo[1,5-a]pyrazina-2(4,2)-pyridinacyclotridecaphan-5-one]", "values": [{"measurement": "hOX2R_Ipone max %act", "value": 104.4, "unit": "%"}, {"measurement": "EC50", "value": 36.4, "unit": "nM"}]}, {"smiles": "CCN1C(=O)N[C@@H](CCC(F)(F)F)CCCCCOc2nc(nn3cc(C)nc23)-c2cc(ncc2OC)[C@H]1C", "note": "[Example 123, (3R,7R,E)-4-ethyl-25-methoxy-16,3-dimethyl-7-(3,3,3-trifluoropropyl)-13-oxa-4,6-diaza-1(2,4)-imidazo[2,1-f][1,2,4]triazina-2(4,2)-pyridinacyclotridecaphan-5-one]", "values": [{"measurement": "hOX2R_Ipone max %act", "value": 102.5, "unit": "%"}, {"measurement": "EC50", "value": 13.8, "unit": "nM"}]}, {"smiles": "CCN1C(=O)N[C@@H](CCC(F)(F)F)CCCCCOc2nc(nn3c(C)cnc23)-c2cc(ncc2OC)[C@H]1C", "note": "[Example 124, (3R,7R,E)-4-ethyl-25-methoxy-17,3-dimethyl-7-(3,3,3-trifluoropropyl)-13-oxa-4,6-diaza-1(2,4)-imidazo[2,1-f][1,2,4]triazina-2(4,2)-pyridinacyclotridecaphan-5-one]", "values": [{"measurement": "hOX2R_Ipone max %act", "value": 97.96, "unit": "%"}, {"measurement": "EC50", "value": 3.99, "unit": "nM"}]}, {"smiles": "CCN1Cc2cnc(OC)c(c2)-c2nc(c3nccn3n2)OCCCCC[C@H](CCC(C)(F)F)NC1=O", "note": "[Example 125, (R,E)-7-(3,3-difluorobutyl)-4-ethyl-22-methoxy-13-oxa-4,6-diaza-1(2,4)-imidazo[2,1-f][1,2,4]triazina-2(3,5)-pyridinacyclotridecaphan-5-one]", "values": [{"measurement": "hOX2R_Ipone max %act", "value": 100.2, "unit": "%"}, {"measurement": "EC50", "value": 1.41, "unit": "nM"}]}, {"smiles": "CCN1C(=O)N[C@@H](CF)CCCCCOc2nc(cn3ccnc23)-c2cc(ncc2OC)[C@H]1C", "note": "[Example 126, (3R,7R,E)-4-ethyl-7-(fluoromethyl)-25-methoxy-3-methyl-13-oxa-4,6-diaza-1(6,8)-imidazo[1,2-a]pyrazina-2(4,2)-pyridinacyclotridecaphan-5-one]", "values": [{"measurement": "hOX2R_Ipone max %act", "value": 96.84, "unit": "%"}, {"measurement": "EC50", "value": 9.38, "unit": "nM"}]}, {"smiles": "CCN1C(=O)N[C@@H](CCC(F)F)CCOCCOc2nc(nn3ccnc23)-c2cc(ncc2F)[C@H]1C", "note": "[Example 127, (3R,7S,E)-7-(3,3-difluoropropyl)-4-ethyl-25-fluoro-3-methyl-10,13-dioxa-4,6-diaza-1(2,4)-imidazo[2,1-f][1,2,4]triazina-2(4,2)-pyridinacyclotridecaphan-5-one]", "values": [{"measurement": "hOX2R_Ipone max %act", "value": 100.1, "unit": "%"}, {"measurement": "EC50", "value": 5.43, "unit": "nM"}]}, {"smiles": "CCN1C(=O)N[C@@H](CCC(F)F)CCCCCOc2nc(cn3ncnc23)-c2cc(ncc2Cl)[C@H]1C", "note": "[Example 128, (3R,7R,E)-25-chloro-7-(3,3-difluoropropyl)-4-ethyl-3-methyl-13-oxa-4,6-diaza-1(6,8)-[1,2,4]triazolo[1,5-a]pyrazina-2(4,2)-pyridinacyclotridecaphan-5-one]", "values": [{"measurement": "hOX2R_Ipone max %act", "value": 102.9, "unit": "%"}, {"measurement": "EC50", "value": 11.2, "unit": "nM"}]}, {"smiles": "CCN1C(=O)N[C@@H](CCC(C)(F)F)CCOCCOc2nc(cn3ncnc23)-c2cc(ncc2C)[C@H]1C", "note": "[Example 129, (3R,7S,E)-7-(3,3-difluorobutyl)-4-ethyl-25,3-dimethyl-10,13-dioxa-4,6-diaza-1(6,8)-[1,2,4]triazolo[1,5-a]pyrazina-2(4,2)-pyridinacyclotridecaphan-5-one]", "values": [{"measurement": "hOX2R_Ipone max %act", "value": 100.2, "unit": "%"}, {"measurement": "EC50", "value": 1.49, "unit": "nM"}]}, {"smiles": "CCN1C(=O)NC(CC(O)C(F)(F)F)CCCCCOc2cn3ncnc3c(n2)-c2cc(ncc2OC)C1C", "note": "[Example 130, (3R,7R,E)-4-ethyl-25-methoxy-3-methyl-7-((R)-3,3,3-trifluoro-2-hydroxypropyl)-13-oxa-4,6-diaza-1(6,8)-[1,2,4]triazolo[1,5-a]pyrazina-2(4,2)-pyridinacyclotridecaphan-5-one]", "values": [{"measurement": "hOX2R_Ipone max %act", "value": 102, "unit": "%"}, {"measurement": "EC50", "value": 1.48, "unit": "nM"}]}, {"smiles": "CCN1C(=O)NC(CC(O)C(F)(F)F)CCCCCOc2cn3ncnc3c(n2)-c2cc(ncc2OC)C1C", "note": "[Example 131, (3R,7R,E)-4-ethyl-25-methoxy-3-methyl-7-((S)-3,3,3-trifluoro-2-hydroxypropyl)-13-oxa-4,6-diaza-1(6,8)-[1,2,4]triazolo[1,5-a]pyrazina-2(4,2)-pyridinacyclotridecaphan-5-one]", "values": [{"measurement": "hOX2R_Ipone max %act", "value": 102.2, "unit": "%"}, {"measurement": "EC50", "value": 0.77, "unit": "nM"}]}, {"smiles": "CCN1C(=O)NC(C(O)CC(F)(F)F)CCCCCOc2cn3ncnc3c(n2)-c2cc(ncc2OC)C1C", "note": "[Example 132, (3R,7R,E)-4-ethyl-25-methoxy-3-methyl-7-((R)-3,3,3-trifluoro-1-hydroxypropyl)-13-oxa-4,6-diaza-1(6,8)-[1,2,4]triazolo[1,5-a]pyrazina-2(4,2)-pyridinacyclotridecaphan-5-one]", "values": [{"measurement": "hOX2R_Ipone max %act", "value": 102.9, "unit": "%"}, {"measurement": "EC50", "value": 4.98, "unit": "nM"}]}, {"smiles": "CCN1C(=O)N[C@@H](CCC(F)(F)F)CCS(=O)(=O)CCOc2nc(cn3ncnc23)-c2cc(ncc2OC)[C@H]1C", "note": "[Example 135, (3R,7S,E)-4-ethyl-25-methoxy-3-methyl-7-(3,3,3-trifluoropropyl)-13-oxa-10-thia-4,6-diaza-1(6,8)-[1,2,4]triazolo[1,5-a]pyrazina-2(4,2)-pyridinacyclotridecaphan-5-one 10,10-dioxide]", "values": [{"measurement": "hOX2R_Ipone max %act", "value": 93.31, "unit": "%"}, {"measurement": "EC50", "value": 170, "unit": "nM"}]}]}
